Measurements as given in PubChem BioAssay (NCI).
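GI50: concentration for 50% inhibition of growth. TGI: concentration producing complete growth inhibition.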

What was measured:
Test in all cases: NCI-60 cell line screen, 384-well format
RPMI-8226 leukemia = tested on: RPMI-8226 leukemia
HL-60(TB) leukemia = tested on: HL-60(TB) leukemia
CAKI-1 renal = tested on: CAKI-1 renal
NCI-H322M lung = tested on: NCI-H322M lung
OVCAR-5 ovarian = tested on: OVCAR-5 ovarian
BT-549 breast = tested on: BT-549 breast
SNB-19 CNS = tested on: SNB-19 CNS
OVCAR-4 ovarian = tested on: OVCAR-4 ovarian
MDA-MB-231 breast = tested on: MDA-MB-231 breast
NCI-H522 lung = tested on: NCI-H522 lung
SR leukemia = tested on: SR leukemia
SK-MEL-28 melanoma = tested on: SK-MEL-28 melanoma
TK-10 renal = tested on: TK-10 renal
MDA-MB-435 melanoma = tested on: MDA-MB-435 melanoma
UACC-257 melanoma = tested on: UACC-257 melanoma
IGROV1 ovarian = tested on: IGROV1 ovarian
HOP-92 NSCLC = tested on: HOP-92 NSCLC
NCI-H226 lung = tested on: NCI-H226 lung
HCT-116 colon = tested on: HCT-116 colon
NCI-H460 NSCLC = tested on: NCI-H460 NSCLC
MALME-3M melanoma = tested on: MALME-3M melanoma
A549 NSCLC = tested on: A549 NSCLC
HS 578T breast = tested on: HS 578T breast
SK-OV-3 ovarian = tested on: SK-OV-3 ovarian
UACC-62 melanoma = tested on: UACC-62 melanoma
MOLT-4 leukemia = tested on: MOLT-4 leukemia
SF-268 CNS = tested on: SF-268 CNS
NCI/ADR-RES ovarian = tested on: NCI/ADR-RES ovarian
MCF7 breast = tested on: MCF7 breast
U251 glioblastoma = tested on: U251 glioblastoma
NCI-H23 lung = tested on: NCI-H23 lung
KM12 colon = tested on: KM12 colon
ACHN renal = tested on: ACHN renal
OVCAR-3 ovarian = tested on: OVCAR-3 ovarian
PC-3 prostate = tested on: PC-3 prostate
SNB-75 CNS = tested on: SNB-75 CNS
SK-MEL-5 melanoma = tested on: SK-MEL-5 melanoma
HOP-62 NSCLC = tested on: HOP-62 NSCLC
SF-295 CNS = tested on: SF-295 CNS
LOX IMVI melanoma = tested on: LOX IMVI melanoma
DU-145 prostate = tested on: DU-145 prostate
A498 renal = tested on: A498 renal
COLO 205 colon = tested on: COLO 205 colon
RXF 393 renal = tested on: RXF 393 renal
EKVX NSCLC = tested on: EKVX NSCLC
SF-539 CNS = tested on: SF-539 CNS
HCT-15 colon = tested on: HCT-15 colon
M14 melanoma = tested on: M14 melanoma
HCC-2998 colon = tested on: HCC-2998 colon
SN12C renal = tested on: SN12C renal
OVCAR-8 ovarian = tested on: OVCAR-8 ovarian
T-47D breast = tested on: T-47D breast
HT29 colon = tested on: HT29 colon

With `COc1ccc(-c2cc3nccn3c(Nc3ncccc3C(N)=O)n2)cc1OC` the GI50 (RPMI-8226 leukemia) was 1.62 µM, the TGI (RPMI-8226 leukemia) was > 100 µM and the GI50 (HL-60(TB) leukemia) was 1.15 µM. The TGI (HL-60(TB) leukemia) was 3.05 µM, the GI50 (CAKI-1 renal) was 0.392 µM and the TGI (CAKI-1 renal) was > 100 µM. The GI50 (NCI-H322M lung) was 2.06 µM, the TGI (NCI-H322M lung) was > 100 µM and the GI50 (OVCAR-5 ovarian) was 4.46 µM. The TGI (OVCAR-5 ovarian) was > 100 µM, the GI50 (BT-549 breast) was 2.26 µM and the TGI (BT-549 breast) was > 100 µM. The GI50 (SNB-19 CNS) was 51.6 µM, the TGI (SNB-19 CNS) was > 100 µM and the GI50 (OVCAR-4 ovarian) was > 100 µM. For the same compound, the TGI (OVCAR-4 ovarian) was > 100 µM, the GI50 (MDA-MB-231 breast) was > 100 µM and the TGI (MDA-MB-231 breast) was > 100 µM. For the same compound, the GI50 (NCI-H522 lung) was 0.587 µM, the TGI (NCI-H522 lung) was > 100 µM and the GI50 (SR leukemia) was 0.129 µM. For the same compound, the TGI (SR leukemia) was 0.301 µM, the GI50 (SK-MEL-28 melanoma) was > 100 µM and the TGI (SK-MEL-28 melanoma) was > 100 µM. The GI50 (TK-10 renal) was 0.692 µM, the TGI (TK-10 renal) was > 100 µM and the GI50 (MDA-MB-435 melanoma) was > 100 µM. The TGI (MDA-MB-435 melanoma) was > 100 µM, the GI50 (UACC-257 melanoma) was 91.7 µM and the TGI (UACC-257 melanoma) was > 100 µM. The GI50 (IGROV1 ovarian) was 0.666 µM, the TGI (IGROV1 ovarian) was > 100 µM and the GI50 (HOP-92 NSCLC) was > 100 µM. The TGI (HOP-92 NSCLC) was > 100 µM, the GI50 (NCI-H226 lung) was 6.52 µM and the TGI (NCI-H226 lung) was > 100 µM. For the same compound, the GI50 (HCT-116 colon) was 0.454 µM, the TGI (HCT-116 colon) was 10.9 µM and the GI50 (NCI-H460 NSCLC) was 0.555 µM. For the same compound, the TGI (NCI-H460 NSCLC) was 12.4 µM, the GI50 (MALME-3M melanoma) was > 100 µM and the TGI (MALME-3M melanoma) was > 100 µM. For the same compound, the GI50 (A549 NSCLC) was 17.9 µM, the TGI (A549 NSCLC) was > 100 µM and the GI50 (HS 578T breast) was 1.31 µM. For the same compound, the TGI (HS 578T breast) was > 100 µM, the GI50 (SK-OV-3 ovarian) was 0.571 µM and the TGI (SK-OV-3 ovarian) was > 100 µM. For the same compound, the GI50 (UACC-62 melanoma) was 0.675 µM, the TGI (UACC-62 melanoma) was > 100 µM and the GI50 (MOLT-4 leukemia) was 1.48 µM. The TGI (MOLT-4 leukemia) was 5.77 µM, the GI50 (SF-268 CNS) was 2.02 µM and the TGI (SF-268 CNS) was > 100 µM. For the same compound, the GI50 (NCI/ADR-RES ovarian) was 1.87 µM, the TGI (NCI/ADR-RES ovarian) was > 100 µM and the GI50 (MCF7 breast) was 1.11 µM. For the same compound, the TGI (MCF7 breast) was > 100 µM, the GI50 (U251 glioblastoma) was 7.43 µM and the TGI (U251 glioblastoma) was > 100 µM. For the same compound, the GI50 (NCI-H23 lung) was 0.858 µM, the TGI (NCI-H23 lung) was > 100 µM and the GI50 (KM12 colon) was 1.73 µM. The TGI (KM12 colon) was > 100 µM, the GI50 (ACHN renal) was 0.45 µM and the TGI (ACHN renal) was 3.75 µM. The GI50 (OVCAR-3 ovarian) was 2.36 µM, the TGI (OVCAR-3 ovarian) was > 100 µM and the GI50 (PC-3 prostate) was 2.17 µM. For the same compound, the TGI (PC-3 prostate) was > 100 µM, the GI50 (SNB-75 CNS) was > 100 µM and the TGI (SNB-75 CNS) was > 100 µM. The GI50 (SK-MEL-5 melanoma) was 0.567 µM, the TGI (SK-MEL-5 melanoma) was > 100 µM and the GI50 (HOP-62 NSCLC) was 0.784 µM. For the same compound, the TGI (HOP-62 NSCLC) was 71.4 µM, the GI50 (SF-295 CNS) was > 100 µM and the TGI (SF-295 CNS) was > 100 µM. The GI50 (LOX IMVI melanoma) was 0.461 µM, the TGI (LOX IMVI melanoma) was 4.31 µM and the GI50 (DU-145 prostate) was 0.914 µM. The TGI (DU-145 prostate) was 12.3 µM, the GI50 (A498 renal) was 0.518 µM and the TGI (A498 renal) was > 100 µM. For the same compound, the GI50 (COLO 205 colon) was 0.522 µM, the TGI (COLO 205 colon) was > 100 µM and the GI50 (RXF 393 renal) was 2.36 µM. The TGI (RXF 393 renal) was 91 µM, the GI50 (EKVX NSCLC) was 17.9 µM and the TGI (EKVX NSCLC) was > 100 µM. For the same compound, the GI50 (SF-539 CNS) was 4.82 µM, the TGI (SF-539 CNS) was > 100 µM and the GI50 (HCT-15 colon) was 0.677 µM. For the same compound, the TGI (HCT-15 colon) was > 100 µM, the GI50 (M14 melanoma) was > 100 µM and the TGI (M14 melanoma) was > 100 µM. The GI50 (HCC-2998 colon) was 46.6 µM, the TGI (HCC-2998 colon) was > 100 µM and the GI50 (SN12C renal) was 0.819 µM. For the same compound, the TGI (SN12C renal) was > 100 µM, the GI50 (OVCAR-8 ovarian) was 2.14 µM and the TGI (OVCAR-8 ovarian) was > 100 µM. The GI50 (T-47D breast) was > 100 µM, the TGI (T-47D breast) was > 100 µM and the GI50 (HT29 colon) was 6.96 µM. For the same compound, the TGI (HT29 colon) was > 100 µM.
